Experiments:
[1] = test system: VLDL; test: Copper ion (CuSO4)-induced VLDL oxidation; settings: for inhibition of VLDL oxidation (TBARS), copper ion oxidative system: 10 μM compound, 4 hours at 37° C.; for VLDL-associated peroxide content, CuSO4 system: control VLDL 1818±333
[2] = Free radical scavenging capacity (DPPH assay); settings: 20 μM; after 300 seconds of incubation
Procedure: Free radical scavenging capacity—The free radical scavenging capacities of the drugs were analyzed by the 1,1-diphenyl-2-picryl-hydrazyl (DPPH) assay. Each drug (20 μM) was mixed with 3 mL of 0.1 nmol DPPH/1 (in ethanol). The time course of the change in the optical density at 517 nm was then kinetically monitored.

[3] = test system: VLDL; test: AAPH-induced VLDL oxidation; settings: for inhibition of VLDL oxidation (TBARS), AAPH oxidative system: 10 μM compound, 4 hours at 37° C.; for VLDL-associated peroxide content, AAPH system: control VLDL 2169±329
[4] = test system: LDL; test: LDL oxidation in all oxidative systems studied (CuSO4, AAPH, J-774A.1 macrophages), summary statements; format: biochemical, human; settings: for inhibition of lipid peroxidation induced by copper ions, AAPH or J-774A.1 macrophages: pharmacological concentrations, summary over systems; for inhibition of LDL oxidation in all oxidative systems studied (in words): CuSO4, AAPH and J-774A.1 macrophage systems
[5] = test system: HDL; test: CuSO4-induced HDL oxidation; settings: for CuSO4-Induced HDL Oxidation, MDA / CuSO4-Induced HDL Oxidation, Peroxides: 10 μM drug, 10 μM CuSO4, 4 hours at 37° C.; for CuSO4-Induced HDL Oxidation, MDA: Control 9.1 ± 0.1; for CuSO4-Induced HDL Oxidation, Peroxides: Control 122 ± 14; for inhibition of HDL oxidation in the presence of CuSO4: 10 μM CuSO4
[6] = test system: HDL-associated paraoxonase; test: HDL-associated paraoxonase activity after CuSO4-induced HDL oxidation; format: biochemical, human; settings: for Paraoxonase Specific Activity: after CuSO4-induced HDL oxidation, before incubation 50±3; for protection of HDL-associated paraoxonase: HDL oxidized with CuSO4, versus HDL oxidized without drug
From the text: . One unit of paraoxonase activity produces 1 nmol of p-nitrophenol per minute.

[7] = test system: LDL; test: Copper ion (CuSO4)-induced LDL oxidation; format: biochemical, human; settings: for inhibition of LDL oxidation measured by the TBARS assay, CuSO4 system: 10 μM compound, 10 μM CuSO4, 4 hours at 37° C., LDL 100 μg of protein/mL; for LDL-associated peroxides content, CuSO4 system: control LDL 710±51
[8] = test system: J-774 A.1 murine macrophages-like cell line; settings: 10 μM compound; J-774 A.1 cells, 2 μM CuSO4, 20 hours
Procedure: The macrophages were grown in Dulbecco's Modified Eagles Medium (DMEM) supplemented with 5% heat inactivated fetal calf serum (FCS). For the lipoprotein oxidation studies, cells (1×10^6/35 mm dish) were incubated with LDL (100 μg of protein/mL) in RPMI medium (without phenol red) in the presence of 2 μM CuSO4 for 20 hours at 37° C. in the incubator. Control LDL was also incubated in a cell-free system under the same conditions. At the end of the incubation period, the extent of LDL oxidation was measured in the medium (after centrifugation at 1000×g for 10 minutes) by the TBARS assay. Cell-mediated oxidation of LDL was calculated by subtracting the values obtained in the cell-free system from those obtained with the cells.

[9] = test system: VLDL; test: Lipoprotein electrophoresis of VLDL after copper ion-induced oxidation; format: biochemical, human; settings: 10 μM CuSO4
Procedure: Lipoprotein electrophoresis—Lipoproteins (100 μg protein/mL) were incubated without or with the drugs followed by oxidation in the presence of 10 μM CuSO4. Then, electrophoresis of the lipoproteins was performed on 1% agarose using a Hydragel-Lipo kit (Sebia, France).

[10] = test system: LDL; test: AAPH (free radical generator)-induced LDL oxidation; format: biochemical, human; settings: for inhibition of LDL oxidation measured by the TBARS assay, AAPH system: 10 μM compound, 5 mM AAPH, 4 hours at 37° C.; for LDL-associated peroxides content, AAPH system: control LDL 990±89
[11] = Procedure: For the lipid peroxidation experiments, 500 μL of membrane vesicles were enriched with dilinoleoyl phosphatidylcholine (DLPC) at a concentration of 1.0 mg DLPC/mL. […] The extent of lipid peroxidation in each sample was determined by a spectrophotometric assay for lipid peroxides in serum lipoproteins using a color reagent known as CHOD-iodide (Merck, Darmstadt, FRG, Merck Cat. No. 14106). The color reagent has the following composition:
The concentration of triiodide formed was measured spectrophotometrically according to the formula (L=lipoprotein) [formula]
To each of the withdrawn aliquots of membrane vesicles was added 1.0 mL of the CHOD color reagent, and the sample was incubated in the absence of light for 4 hours. […] Lipid peroxide formation was measured in triplicate and values were expressed as mean±SD. The significance of differences between results from different experimental conditions was tested using the two-tailed student t-test.

Molecule	inhibition of VLDL oxidation (TBARS), copper ion oxidative system [1]	reduction in the absorbance at 517 nm (DPPH assay) [2]	inhibition of VLDL oxidation (TBARS), AAPH oxidative system [3]	inhibition of lipid peroxidation induced by copper ions, AAPH or J-774A.1 macrophages [4]	CuSO4-Induced HDL Oxidation, MDA ([5]; Table 1) [nmoL/mg HDL Protein]	CuSO4-Induced HDL Oxidation, Peroxides ([5]; Table 1) [nmoL/mg HDL Protein]	Paraoxonase Specific Activity ([6]; Table 1, Control 26 ± 2) [nmoL/mg HDL Protein/min]	inhibition of HDL oxidation in the presence of CuSO4 [5]	protection of HDL-associated paraoxonase [6]	VLDL-associated peroxide content, CuSO4 system [1] [nmol/mg VLDL protein]	inhibition of LDL oxidation measured by the TBARS assay, macrophage system [8] [%]	inhibition of LDL oxidation measured by the TBARS assay, AAPH system [10] [%]	LDL-associated peroxides content, AAPH system [10] [nmol/mg LDL protein]	inhibition of LDL oxidation measured by the TBARS assay, CuSO4 system [7] [%]	LDL-associated peroxides content, CuSO4 system [7] [nmol/mg LDL protein]	VLDL-associated peroxide content, AAPH system [3] [nmol VLDL protein]	inhibition of LDL oxidation in all oxidative systems studied (in words) [4]	also measured
CC(C)c1c(C(=O)Nc2ccccc2)c(-c2ccccc2)c(-c2ccc(F)cc2)n1CC[C@@H](O)C[C@@H](O)CC(=O)O [atorvastatin, reference compound]	no effect	not by atorvastatin	no effect	not inhibited	9.6 ± 0.5	122 ± 15	29 ± 4	–	–	–	–	–	–	–	–	–	–	–
Cc1ccc(C)c(OCCCC(C)(C)C(=O)O)c1 [gemfibrozil, reference compound]	–	not gemfibrozil itself	–	not inhibited	–	–	–	no effect	no effect	–	–	–	–	–	–	–	–	lag time for the initiation of LDL oxidation (conjugated dienes formation) ([7]; gemfibrozil experiment, LDL alone 60±9): 60 ± 9 min; CuSO4-Induced HDL Oxidation, MDA ([5]; Table 2): 8.2 ± 0.4 nmoL/mg HDL Protein; CuSO4-Induced HDL Oxidation, Peroxides ([5]; Table 2): 134 ± 13 nmoL/mg HDL Protein; Paraoxonase Specific Activity ([6]; Table 2, Control 26 ± 3): 27 ± 5 nmoL/mg HDL Protein/min
CC(C)c1c(C(=O)Nc2ccccc2O)c(-c2ccccc2)c(-c2ccc(F)cc2)n1CC[C@@H](O)C[C@@H](O)CC(=O)O [ortho-hydroxy metabolite, ortho-hydroxy atorvastatin]	79%	37%	43%	–	0.2 ± 0.1	9 ± 1	40 ± 4	completely inhibited	54%	242±22	50	44	554±32	73	192±15	1228±210	inhibited	lipoprotein electrophoretic migration of oxidized VLDL [9]: reduce lipoprotein electrophoretic migration; inhibitory effect on copper ion-induced LDL oxidation (TBARS) ([7]; metabolite I of gemfibrozil 3 μM, ortho-hydroxy metabolite of atorvastatin 4 μM, alone or in combination, 10 μM CuSO4, 4 hours): 43%
CC(C)c1c(C(=O)Nc2ccc(O)cc2)c(-c2ccccc2)c(-c2ccc(F)cc2)n1CC[C@@H](O)C[C@@H](O)CC(=O)O [para-hydroxy metabolite, para-hydroxy atorvastatin]	37%	28%	16%	–	4.5 ± 0.3	65 ± 9	33 ± 3	about 50%	27%	1088±310	46	34	624±38	60	284±13	1819±228	inhibited	inhibition of lipid peroxidation in membrane vesicles ([11]; 10.0 μM compound): 80%; comparative antioxidant potency versus Vitamin E and probucol ([11]; FIG. 12): significantly more active; antioxidant activity under atherosclerotic-like conditions of elevated membrane cholesterol ([11]; FIG. 13): increased; levels of lipid peroxidation inhibited ([11]; at concentrations as low as 10.0 μM): > 10^2 μM
vitamin E	–	95%	–	–	–	–	–	–	–	–	–	–	–	–	–	–	–	–

Reference: patent US6362236B1, “Inhibition of lipoprotein oxidation” (Warner-Lambert Company, priority 1997, dated 2002)
